Measured values reported in patent EP4800015A1, “AZABICYCLO DERIVATIVE AND PREPARATION METHOD THEREFOR, AND USE” (Zhejiang Hisun Pharmaceutical Co., Ltd., priority 2023, dated 2025).

What was measured:
[1] = Metabolic stability in human liver microsomes; format: in vitro ADME; conditions: human liver microsomes 0.5 mg mL^-1, NADPH 1 mM, 0-60 min; read-out: Liver microsomal stability t1/2 (min) Human
Protocol: (§1) The purpose of this study was to investigate the metabolic stability of the compounds of the present disclosure in human and dog liver microsomes.
(§2) The compounds were co-incubated with human (or dog) liver microsomes, and the reaction was initiated by adding coenzyme NADPH (1 mM). At 0, 5, 15, 30, and 60 minutes, 60 µL of incubation solution was removed, and 180 µL of acetonitrile containing internal standard (clopidogrel) was added to quench the reaction, the mixture was shaken for 10 seconds, centrifuged at 10000 rpm for 10 minutes, and the supernatant was taken for analysis by LC-MS/MS. The in vitro intrinsic clearance was calculated based on the elimination half-life of the test compound in the incubation system. Midazolam was used as an internal reference compound, with two parallel incubations for each. Incubation conditions are summarized in Table 6 below: Table 6 Incubation conditions for the example compounds of the present disclosure
(§3) The ratio of the peak area of analyte to internal standard (Aanalyte/AIS) was obtained from the instrument, and the remaining percentage (%Control) was calculated from the ratio of Aanalyte/AIS in non-zero time point samples to zero time samples. Ln (%Control) was plotted against incubation time and linearly fitted. The test compound clearance constant (k, min^-1) and clearance half-life (T1/2, min) were calculated using the following equations. k = −slope [formula] T1/2 = 0.693/k. [formula]

[2] = biological target: T1, recombinant human WRN (Homo sapiens, UniProt Q14191); assay: Inhibition of WRN enzyme activity (ATPase), ADP-Glo Kinase Assay; format: biochemical; conditions: WRN protein 5 nM, Flap 0.1 nM, ATP 30 µM; read-out: IC50
T1 construct: purchased BPS 101264
T1 sequence (Q14191 whole entry): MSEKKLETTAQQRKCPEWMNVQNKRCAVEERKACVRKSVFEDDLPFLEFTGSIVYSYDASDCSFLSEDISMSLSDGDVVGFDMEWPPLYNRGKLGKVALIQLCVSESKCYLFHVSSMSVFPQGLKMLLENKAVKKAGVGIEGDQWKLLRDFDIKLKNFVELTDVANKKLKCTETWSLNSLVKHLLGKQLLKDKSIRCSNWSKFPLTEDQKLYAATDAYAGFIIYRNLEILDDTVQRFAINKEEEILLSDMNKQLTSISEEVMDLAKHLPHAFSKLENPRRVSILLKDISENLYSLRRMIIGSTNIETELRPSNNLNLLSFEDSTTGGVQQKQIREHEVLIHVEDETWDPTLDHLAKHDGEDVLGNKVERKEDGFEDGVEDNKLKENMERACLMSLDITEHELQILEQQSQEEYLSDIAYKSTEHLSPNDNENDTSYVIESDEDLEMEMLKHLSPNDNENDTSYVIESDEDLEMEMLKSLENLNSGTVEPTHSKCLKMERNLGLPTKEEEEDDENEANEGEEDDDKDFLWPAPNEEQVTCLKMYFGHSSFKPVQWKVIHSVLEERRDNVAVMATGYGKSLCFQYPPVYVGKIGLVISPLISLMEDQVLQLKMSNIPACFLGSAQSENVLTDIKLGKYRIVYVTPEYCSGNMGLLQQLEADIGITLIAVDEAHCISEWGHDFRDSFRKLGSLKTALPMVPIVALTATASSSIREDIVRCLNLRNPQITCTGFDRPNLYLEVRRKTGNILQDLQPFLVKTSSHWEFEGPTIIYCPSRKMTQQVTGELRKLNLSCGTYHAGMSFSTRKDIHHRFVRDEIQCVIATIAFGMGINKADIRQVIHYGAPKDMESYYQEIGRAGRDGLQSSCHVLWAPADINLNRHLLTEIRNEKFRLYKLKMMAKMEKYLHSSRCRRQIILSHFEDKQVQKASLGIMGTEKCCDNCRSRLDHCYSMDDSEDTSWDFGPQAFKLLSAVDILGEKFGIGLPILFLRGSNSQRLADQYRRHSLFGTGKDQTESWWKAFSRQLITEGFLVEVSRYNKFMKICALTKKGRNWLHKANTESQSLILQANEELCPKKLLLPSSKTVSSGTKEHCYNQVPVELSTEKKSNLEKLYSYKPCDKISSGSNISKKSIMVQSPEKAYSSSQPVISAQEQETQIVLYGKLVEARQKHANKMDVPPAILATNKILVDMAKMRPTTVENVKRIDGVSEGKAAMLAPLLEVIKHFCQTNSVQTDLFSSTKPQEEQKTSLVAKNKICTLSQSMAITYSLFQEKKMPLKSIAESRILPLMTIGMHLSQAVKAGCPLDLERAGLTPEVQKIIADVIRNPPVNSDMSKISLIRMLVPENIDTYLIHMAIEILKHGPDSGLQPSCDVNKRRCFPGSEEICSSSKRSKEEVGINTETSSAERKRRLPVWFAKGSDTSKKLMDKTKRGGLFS
In short: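 ATPase activity was measured by ADP-Glo luminescence after a 10-min room-temperature reaction with 30 µM ATP and 0.1 nM Flap26 oligonucleotide substrate. The 5 nM WRN had first been exposed to compound (0.004–1000 nM) for 15 min in pH 7.5 Tris buffer with 2 mM MgCl2. IC50 values came from log-concentration regression against the DMSO control.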

[3] = system: RL95-2 cells; assay: Inhibition of RL95-2 cell proliferation (CellTiter-Glo); format: cell-based; conditions: Homo sapiens; RL95-2 cells (MSI-H), 120 hours
In short: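 Proliferation IC50 derived by nonlinear regression of % inhibition against log concentration, with 0.1% DMSO wells as reference. CellTiter-Glo luminescence was read after 120 h of compound exposure (10000 nM down to 1.52 nM final) at 37 °C. MSI-H RL95-2 cells seeded at 500/well in DMEM/F12 with 10% FBS the day before.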

[4] = Metabolic stability in dog liver microsomes; format: in vitro ADME; conditions: dog liver microsomes 0.5 mg mL^-1, NADPH 1 mM, 0-60 min; read-out: Liver microsomal stability t1/2 (min) Dog
Protocol: as §1, §2, §3

[5] = Pharmacokinetic test in mice after intragastric administration; format: in vivo; conditions: male, mouse, plasma, ICR mice, Oral (10 mg/kg); for AUC(0-t): read-out: Area under curve AUC0-t; for half-life: read-out: Half-life T1/2 (converted); for Cmax: read-out: Plasma concentration Cmax
Protocol: ICR mice were used as test animals, the plasma concentrations of the control compound HRO761 and the compounds of the present disclosure at different time points after intragastric administration were determined by LC/MS/MS method, and the pharmacokinetic characteristics of the compounds of the present disclosure in mice were studied.
ICR mice, male, 30.8 to 38.0 g, purchased from Vital River Laboratory Animal Technology Co., Ltd.
An appropriate amount of the test compound was weighed, and an appropriate amount of DMA (N,N-dimethylacetamide), 30% Solutol HS15 (30% polyethylene glycol-15 hydroxystearate), and Saline (saline) were added sequentially, the mixture was ultrasonicated and vortex mixed to prepare a 1 mg/mL dosing formulation. The ratio of DMA:30% Solutol HS15:Saline was 5:5:90 (v/v/v).
After overnight fasting, ICR mice in each test compound injection group (9 mice per group) were administered intragastrically (PO, compound dose was 10 mg/kg, administration volume was 10 mL/kg), and food was given 4 hours after administration.
About 0.1 mL of blood was collected via the orbital cavity before administration and at 0.25 h, 0.5 h, 1 h, 2 h, 4 h, 8 h, 10 h, and 24 h after administration, and whole blood samples were placed in anticoagulant tubes containing EDTA-K2. The samples were placed on ice after collection, and plasma was separated by centrifugation (centrifugation conditions: 1500 g, 10 minutes). The collected plasma was stored at -40 to -20 °C before analysis.
The content of the test compound in mouse plasma after intragastric administration was determined by LC-MS/MS.

[6] = system: Caco-2 monolayer cell model; assay: Caco-2 bidirectional permeability and efflux ratio; format: in vitro ADME; conditions: Caco-2, conclusion
Protocol: (§4) The bidirectional permeability and efflux ratio of the example compounds and control compound were determined in a Caco-2 monolayer cell model.
(§5) Caco-2 cells (cultured at Shanghai Medicilon Inc.) were recovered in the experiment. After the cells were in good condition, they were digested, and the cell density was adjusted (1 × 10^5 cells/cm^2). Caco-2 cells were seeded into Transwell chambers and placed in 24-well plates for cultivation. After continuous cultivation for about 21 days, TEER values were measured one day before the experiment to ensure formation of a confluent cell monolayer for transport experiments (TEER > 200 Ω·cm^2). Test compounds were diluted from 10 mM stock solutions to 10 µM concentration using transport buffer (HBSS containing BSA) (metoprolol and atenolol were set as positive compounds). For efflux determination, 0.6 mL of compound dilution solution was added to the outer well (side B), and 0.4 mL of blank transport buffer was added to the Transwell chamber. For absorption determination, 0.4 mL of transport buffer containing compound was added to the Transwell chamber, and 0.6 mL of blank transport buffer was added to the outer side. After setup, the 24-well plates were cultivated at 37 °C and 5% CO2 with 95% relative humidity for 120 minutes, and permeability of test compounds from A to B direction or B to A direction was measured, respectively, with two duplicate wells set for each direction. Liquid in Transwell chambers and 24-well plates was collected separately, 60 µL each, and 180 µL of acetonitrile (containing internal standard) was added, vortexed for 1 min, then centrifuged at 4 °C, 10000 rpm for 10 min. The supernatant was taken, filtered through a 0.22 µm membrane, and placed in vials for testing. The content of the compounds in each Transwell chamber and 24-well plate was determined by liquid chromatography-tandem mass spectrometry (LC-MS/MS). Table 4 Permeability data of compounds of the present disclosure

[7] = Caco-2 bidirectional permeability and efflux ratio; format: in vitro ADME; conditions: human, Caco-2, 10 µM, 120 minutes
Protocol: as §4, §5

SMILES | half-life [1] [min] | IC50 [2] [nM] | IC50 [3] [nM] | half-life [4] [min] | AUC(0-t) [5] [ng·h/mL] | half-life [5] [h] | Cmax [5] [ng/mL] | efflux (in words) [6] | permeability (in words) [6] | efflux ratio at 120 min, 10 µM ([7]; read-out: Efflux ratio Papp(B-A)/ Papp(A-B)) | Papp A→B at 120 min, 10 µM ([7]; A to B) [×10⁻⁶ cm/s] | Papp B→A at 120 min, 10 µM ([7]; B to A) [×10⁻⁶ cm/s]
CCc1c(N2CCN(C(=O)c3ncnc(C)c3O)CC2)c(=O)n2nc(-c3ccc4occc4c3)nc2n1CC(=O)Nc1ccc(C(F)(F)F)cc1Cl [Example 67, 2-(2-(benzofuran-5-yl)-5-ethyl-6-(4-(5-hydroxy-6-methylpyrimidine-4-carbonyl)piperazin-1-yl)-7-oxo-[1,2,4]triazolo[1,5-a]pyrimidin-4(7H)-yl)-N-(2-chloro-4-(trifluoromethyl)phenyl)acetamide] | 657 | < 1 | 1 to 100 | 318 | 83400 | 0.66 | 31400 | – | – | – | – | –
CCc1c(N2CCN(C(=O)c3ncnc(C)c3O)CC2)c(=O)n2nc(C3=CCOCC3)nc2n1CC(=O)Nc1ccc(C(F)(F)F)cc1Cl [HRO761, reference compound] | 483 | – | – | 175 | 15600 | 2.81 | 7010 | apparent potential efflux properties | moderate permeability | 3.65 | 3.96 | 14.5
